Here are results for 1 sequence from publication PMC11766344, “HGS Promotes Tumor Growth, Whereas the Coiled-Coil Domain and Its Oligopeptide of HGS Suppress It” (International Journal of Molecular Sciences, 2025).

The test system of one series is COLO 205 cells. As to the kind of experiment: In vitro anchorage-independent growth inhibition test, ULAS plate. The series is classed as cell-based, human. The conditions noted are these: 2 × 10^3 cells/well, ULAS 96-well plate, Opti-MEM 5% FBS, 7 days, 37 °C, Cell Counting Kit-8 A450 nm. The text has this: The effect of OP12-462 on anchorage-independent growth was examined; normal cells can proliferate in an anchorage-dependent manner but cannot in an anchorage-independent manner, whereas cancer cells can both proliferate in the anchorage-independent manner and form tumors. In normal (adhesion) plates, cancer cells adhere to the surface of plates and proliferate in the anchorage-dependent manner, so the anchorage-independent growth ability of the cancer cells cannot be observed. In ultra-low attachment surface (ULAS) plates, the cancer cells cannot adhere to the surface nor proliferate in the anchorage-dependent manner but can proliferate in the anchorage-independent manner. By measuring the proliferation ability of cancer cells on the ULAS plates, we can determine the anchorage-independent growth ability of the cells. […] Next, the effect of OP12-462 on tumor growth was examined. COLO 205 cells were inoculated subcutaneously into the back of BALB/cSlc-nu/nu nude mice. […]
After 7 days, 0.1 mL of Cell Counting Kit-8 solution (5-fold PBS diluted solution) was added, and the absorbance A450 nm was immediately measured and set as the T0 blank value. After incubating at 37 °C for 2 h, the absorbance A450 nm was measured again and set as T2. The absorbance difference between T2 and T0 was defined as the anchorage-independent or anchorage-dependent growth activity value.
In general terms: Formazan colour is commonly taken as a measure of viable cells.

For another series, the system named is MDCK normal cells. Kind of series: Anchorage-dependent growth in normal adhesion plates, MDCK normal cells. The series is classed as cell-based, canine. An excerpt:
(§1) The effect of OP12-462 on anchorage-independent growth was examined; normal cells can proliferate in an anchorage-dependent manner but cannot in an anchorage-independent manner, whereas cancer cells can both proliferate in the anchorage-independent manner and form tumors. In normal (adhesion) plates, cancer cells adhere to the surface of plates and proliferate in the anchorage-dependent manner, so the anchorage-independent growth ability of the cancer cells cannot be observed. In ultra-low attachment surface (ULAS) plates, the cancer cells cannot adhere to the surface nor proliferate in the anchorage-dependent manner but can proliferate in the anchorage-independent manner. By measuring the proliferation ability of cancer cells on the ULAS plates, we can determine the anchorage-independent growth ability of the cells. […] Next, the effect of OP12-462 on tumor growth was examined. COLO 205 cells were inoculated subcutaneously into the back of BALB/cSlc-nu/nu nude mice. The day when the tumor volume exceeded 250 mm^3 was set as day 0, and OP12-462 (50 mg/kg body weight) in 0.2 mL of PBS solution or vehicle (PBS) was administered once a day into the tail vein for 10 days from day 0 to day 9.

In another series the test system is COLO205 cells. Kind of series: Oligopeptide tumor growth inhibition test, subcutaneous COLO205 tumors in nude mice. The format is in vivo, nude mice (BALB/cSlc-nu/nu). The text has this: The effect of OP12-462 on anchorage-independent growth was examined; normal cells can proliferate in an anchorage-dependent manner but cannot in an anchorage-independent manner, whereas cancer cells can both proliferate in the anchorage-independent manner and form tumors. In normal (adhesion) plates, cancer cells adhere to the surface of plates and proliferate in the anchorage-dependent manner, so the anchorage-independent growth ability of the cancer cells cannot be observed. In ultra-low attachment surface (ULAS) plates, the cancer cells cannot adhere to the surface nor proliferate in the anchorage-dependent manner but can proliferate in the anchorage-independent manner. By measuring the proliferation ability of cancer cells on the ULAS plates, we can determine the anchorage-independent growth ability of the cells. […]
After a 2-week acclimation period, 8-week-old female C57BL/6 or nude mice were randomly divided into groups. […] Tumor formation was monitored for 4 or 5 weeks after the inoculation by measuring the width (W) and length (L) of the tumors with W < L. The tumor volume was calculated according to the formula (W2 × L × π/6).
The cells were resuspended at a cell density of 1 × 10^6 cells in 100 µL of PBS and were inoculated subcutaneously into the flank region of 8-week-old female nude mice. […] Tumor sizes were measured daily.

Series [1] can be described thus: Body weight and acute toxicity in tumor-bearing nude mice given OP12-462. The series is classed as in vivo, nude mice (BALB/cSlc-nu/nu).
Text: as §1
The cells were resuspended at a cell density of 1 × 10^6 cells in 100 µL of PBS and were inoculated subcutaneously into the flank region of 8-week-old female nude mice. The day when the tumor volume exceeded 250 mm^3 was set as Day 0, and oligopeptide OP12-462 (50 mg/kg body weight) was administered as a 0.2 mL PBS solution in the tail vein once daily for 10 days from Day 0 to Day 9. Tumor sizes were measured daily.

The subject of a further series is normal or cancer cells. Kind of series: Acute toxicity to cells in vitro. The series is classed as cell-based. An excerpt:
HGS/C and oligopeptides constituting HGS/C, including OP12-462, might be new tumor growth inhibitors that suppress tumor growth by inhibiting the anchorage-independent growth ability of cancer cells rather than directly destroying cancer cells. […] HGS/C and the OP12-462 are novel inhibitors of TGF-β-SMAD and Wnt-β-catenin signal transduction. They not only have a novel tumor growth suppression effect but also have the potential to become novel medicines for diseases, including various fibrosis diseases, whose symptoms worsen owing to the enhancement of these signal transduction pathways. Potential drug targets of EMT in metastasis are now in development. HGS and HGS/C are an inducer and an inhibitor of EMT and tumorigenesis. Therefore, HGS and HGS/C could be good targets of EMT-blocking drugs for clinical application.

“Also recorded” adds a separate entry of the source.

As for “ERRLYYEGLQDK [OP12-462, oligopeptide of 12 amino acid residues (…) constituting the coiled-coil domain of HGS]”, in the series on COLO 205 cells, the Anchorage-independent growth activity entry is recorded as “inhibited the anchorage-independent growth activity of COLO 205 cells (Figure 5b) in a concentration-dependent manner”. Further, the “Anchorage-dependent growth of MDCK normal cells” value in the series with MDCK normal cells is “did not inhibit”. Besides, the “Tumor growth (tumor volume) versus vehicle” value in the series with COLO205 cells (50 mg/kg body weight in 0.2 mL PBS, tail vein, once daily for 10 days (day 0 to day 9), day 0 = tumor volume exceeded 250 mm^3, nude mice, n = 5) is on record as “statistically significant from the third day onwards; also recorded: significantly suppressed the growth of the tumor”. In addition, in the series with COLO205 cells (50 mg/kg tail vein once daily day 0 to day 9, nude mice with COLO205 tumors), the “Duration of tumor growth suppression after end of administration” value is reported as “for more than two weeks after the administration had ended”. The “Average body weight / weight loss” value in series [1] (50 mg/kg tail vein for 10 consecutive days) is on record as “no change in the average body weight; also recorded: did not result in weight loss”. In series [1] (50 mg/kg tail vein once daily for 10 days), the “Acute toxicity due to administration” value is listed as “No acute toxicity”. Further, in series [1] (ten days after administration, 50 mg/kg tail vein once daily for 10 days), the “Changes in body weight of each mouse” value is on record as −0.4% to +2. The “Acute toxicity to normal or cancer cells in vitro” value in the series on normal or cancer cells was “no acute toxicity”.
